This passage reports GI50 and TGI results from PubChem BioAssay (NCI).

Holding throughout (assay): NCI anticancer screen, dose series, 48 h
The subject of test [1] is CAKI-1 renal.
The subject of test [2] is KM12 colon.
For test [3], the system named is LOX IMVI melanoma.
Test [4] relates to NCI-H23 lung.
In test [5] the test system is OVCAR-8 ovarian.
Test [6] concerns RPMI-8226 leukemia.
Test [7] has as its system RXF 393 renal.
The subject of test [8] is SN12C renal.
For test [9], the system named is SNB-19 CNS.
Test [10] relates to SW-620 colon.

The structures appear in SMILES notation.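 48-hour exposure; five concentrations; linearly interpolated endpoints. GI50 = concentration required for 50% inhibition of growth. Definition used: TGI = concentration required for complete inhibition of growth.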 Where only a bound is given, the exact number is not on record here.

`O=[N+]([O-])c1ccc(S(=O)Cc2ccccc2)c([N+](=O)[O-])c1` (stereo unspecified): the GI50 in test [1] is 1.85 µM; in [2] it was 15.6 µM; in test [3] it was 1.6 µM; in test [4], 2.54 µM; in [5] it was 3.02 µM; in test [6], 1.89 µM. Besides, the GI50 in test [7] was 1.45 µM; in test [8], 11.6 µM; in test [9] it was 14 µM; in test [10], 1.33 µM. Also, the TGI in [1] came out at 3.85 µM; in test [2], 29.4 µM; in [3] it was 2.94 µM; in [4] it was 8.91 µM; in test [5], 10.5 µM; in test [6] it was 4.46 µM. For the same molecule, the TGI in test [7] stood at 2.78 µM; in test [8], 33.1 µM; in [9] it was 27.6 µM; in test [10], 2.65 µM.

As for `Cn1nc(-c2ccccc2)c(C(=O)/C=C/c2ccc(F)cc2)c(N2CCCCC2)c1=O`, the TGI in test [1] is 27.3 µM; in [3], 15.4 µM; in test [5], 75.6 µM; in [6], 6.98 µM; in [7] it was 9.86 µM; in test [8], above 100 µM. Moreover, the TGI in test [9] was 55.4 µM; in test [10] it was 45.3 µM.

In the case of `CCc1n(Cc2ccc3ccccc3n2)cc[n+]1Cc1ccc2ccccc2n1`, the GI50 in test [2] is 0.185 µM; in [3], 0.596 µM; in test [4] it was 0.257 µM; in [5] it was 1.63 µM; in test [6], 0.0172 µM; in test [7], 0.982 µM. The GI50 in test [8] is 0.317 µM; in test [9], 0.0687 µM; in test [10] it was 1.39 µM. The TGI is 11.3 µM in [2]; 13.2 µM in test [3]; 8.66 µM in test [4]; 17.6 µM in [5]; 10.1 µM in [6]; 13 µM in test [7]. In addition, the TGI in test [8] stood at 7.75 µM; in test [9], 10.7 µM; in [10], 30.2 µM.

Regarding `COC1=CC(=O)C2C(C1=O)[C@@H]1c3ccccc3C[C@H]21` (stereo partly specified), the TGI in [1], in test [2], in test [3], in test [4], in [5] and in test [6] was above 100 µM each time. Moreover, the TGI in test [7], in [9] and in test [10] was above 100 µM throughout.

In the case of `CC(=O)Nc1ccc(C(=O)NN2C(=O)C(Cl)C2c2ccc([N+](=O)[O-])cc2)cc1` (stereo unspecified), the TGI in [1], in [3], in test [4], in [5], in test [7] and in [8] was above 100 µM each time. Besides, the TGI in [9] and in [10] was above 100 µM each time.

In the case of `CC(C)=CCC/C(C)=C/CC/C(C)=C/Cc1c(O)c2ccccc2oc1=O`, the TGI in test [2], in test [3], in [4], in [5], in [6] and in test [7] was above 100 µM each time. Moreover, the TGI in [8], in test [9] and in test [10] was above 100 µM each time.

Turning to `CCO/C=C/C(C)C1(C(=O)OCC)CCCCC1=O` (stereo unspecified), the TGI in test [1], in test [2], in [3], in test [4], in test [5] and in test [6] was above 100 µM in each case. Besides, the TGI in test [7], in test [8] and in [9] was above 100 µM each time.

As for `Nc1nc2c(c(=O)[nH]1)NC(CO)CN2` (stereo unspecified), the TGI is above 100 µM in test [2]; 36.7 µM in test [3]; above 100 µM in [4]; above 100 µM in test [5]; above 100 µM in [6]; above 100 µM in [7]. The TGI in test [8], in [9] and in test [10] was above 100 µM each time.

In the case of `Clc1ccc(Cc2nc3ccccc3s2)c(Cl)c1`, the TGI was determined as 31.2 µM in [1]; 34.9 µM in [2]; 31.4 µM in [3]; 38.4 µM in test [5]; 48.5 µM in [6]; 36 µM in [7]. Further, the TGI in [8] amounted to 30.3 µM; in [9], 49.1 µM; in test [10], 46.4 µM.

For the molecule `COc1ccc(C2SCC(=O)N2NC(=O)C(O)c2ccccc2)cc1OC` (stereo unspecified), the GI50 in test [1], in test [2], in [3], in test [5], in [6] and in test [7] was above 100 µM throughout. The GI50 in test [8], in test [9] and in test [10] was above 100 µM in each case. Besides, the TGI in test [1], in test [2], in test [3], in [5], in test [6] and in [7] was above 100 µM in each case. Besides, the TGI in test [8], in test [9] and in test [10] was above 100 µM in each case.

In the case of `CCc1cccc(C(C)C)c1NC(=O)C(=O)CC(=O)c1c(C)n([O-])c2ccccc2[n+]1=O`, the TGI in [1], in test [3], in [4], in test [5], in test [6] and in test [7] was above 100 µM throughout. Besides, the TGI in test [8], in test [9] and in [10] was above 100 µM in each case.
